Data from PubChem BioAssay (NCI).
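Interpolation was linear, between the two tested concentrations surrounding the appropriate level; five concentrations were tested over 48 hours in 96-well plates. TGI marks complete inhibition of growth.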

Columns and labels:
Test in all cases: NCI-60 cell line screen, 48 h
HCC-2998 colon = test system: HCC-2998 colon
A498 renal = test system: A498 renal
HT29 colon = test system: HT29 colon
SF-295 CNS = test system: SF-295 CNS
BT-549 breast = test system: BT-549 breast
CAKI-1 renal = test system: CAKI-1 renal
SF-268 CNS = test system: SF-268 CNS
KM12 colon = test system: KM12 colon
HCT-15 colon = test system: HCT-15 colon
M14 melanoma = test system: M14 melanoma
DU-145 prostate = test system: DU-145 prostate
MOLT-4 leukemia = test system: MOLT-4 leukemia

| Structure (SMILES) | TGI (HCC-2998 colon) [µM] | TGI (A498 renal) [µM] | TGI (HT29 colon) [µM] | TGI (SF-295 CNS) [µM] | TGI (BT-549 breast) [µM] | TGI (CAKI-1 renal) [µM] | TGI (SF-268 CNS) [µM] | TGI (KM12 colon) [µM] | TGI (HCT-15 colon) [µM] | TGI (M14 melanoma) [µM] | TGI (DU-145 prostate) [µM] | TGI (MOLT-4 leukemia) [µM] |
| --- | --- | --- | --- | --- | --- | --- | --- | --- | --- | --- | --- | --- |
| Nc1ccc2nc3ccc(N)cc3[n+](-c3ccccc3)c2c1 | > 100 | > 100 | > 100 | > 100 | > 100 | > 100 | > 100 | > 100 | > 100 | > 100 | > 100 |  |
| COc1cc(-c2c(C#N)c(N)c(C#N)c3c2COc2ccccc2-3)cc(OC)c1OC | > 100 | > 100 | > 100 | 58.5 | > 75.4 | > 100 | 34 | > 100 | > 100 | > 100 | > 100 | > 100 |
| COc1ccc(C2C(=O)C(Cl)N2Nc2nc(C)cc(=O)[nH]2)cc1OC (centres undefined) | > 100 |  | > 100 |  |  |  | > 100 | > 100 | > 100 | > 100 |  | > 100 |
| CC(=O)Oc1ccc2c(C)cc(=O)oc2c1 | > 100 | > 100 | > 100 | > 100 | > 100 | > 100 | > 100 | > 100 | > 100 | > 100 | > 100 | > 100 |
| Nc1ccc(C2NC(=O)Cc3c2ccc2ccccc32)cc1 (centres undefined) | > 100 | > 100 | > 100 | > 100 |  | > 100 | > 100 | > 100 | > 100 | > 100 | > 100 | > 100 |
| NC(=O)NO | 1810 | 1990 | > 2440 | 1950 | > 2500 | 1720 | 2340 | 2500 | 2360 | 1950 | > 2500 | 2100 |
| COc1cccc(Nc2nc(-c3cccs3)nc3ccc(Br)cc23)c1 |  | > 100 | > 100 | > 100 | > 100 | > 100 | > 100 | > 100 | > 100 | > 100 | > 100 |  |
| COc1ccccc1N1C(Cl)C(=O)C1c1c[nH]c2ccccc12 (centres undefined) |  |  | > 100 | > 100 |  |  | > 100 | > 100 |  | > 100 |  | > 100 |
| O=C(O)C(O)Cc1ccccn1 (centres undefined) | > 100 | > 100 | > 100 | > 100 | > 100 | > 100 | > 100 | > 100 | > 100 | > 100 | > 100 |  |
| N=C(N)C(N=Nc1ccccc1)C(N)=O (centres undefined) | > 100 | > 100 | > 100 | > 100 | > 100 | > 100 | > 100 | > 100 | > 100 | > 100 | > 100 | > 100 |
